# Reference: the supplement of paper PMC4862054
# Several values for one entry are separate records, joined by “and”; a condition that tells them apart may be missing. Equal values may be shown once.
# Legend:
# Assay in all cases: normalised viability (% of control), CellTiter-Blue; higher = more viable cells (about 100 = DMSO control)
# Details in all cases: incubation time: 72 h
# CAL-85-1 [1] = test system: CAL-85-1
# Procedure: (§1)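 DSRT, CellTiter-Blue viability, 72 h incubation. Signal is normalised to DMSO and benzethonium chloride controls. Value is the normalised response at dose 6.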
# DU-4475 [2] = test system: DU-4475
# Procedure: as §1
# HDQ-P1 [3] = test system: HDQ-P1
# Procedure: as §1
# MDA-MB-453 [4] = test system: MDA-MB-453
# Procedure: as §1
# CAL-148 [5] = test system: CAL-148
# Procedure: as §1
# CAL-51 [6] = test system: CAL-51
# Procedure: as §1
# CAL-85-1 [7] = test system: CAL-85-1; remark: listed apart in the source
# Procedure: (§2)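 DSRT, CellTiter-Blue viability, 72 h incubation. Signal is normalised to DMSO and benzethonium chloride controls. Value is the normalised response at dose 8.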
# DU-4475 [8] = test system: DU-4475; remark: listed apart in the source
# Procedure: as §2
# HDQ-P1 [9] = test system: HDQ-P1; remark: listed apart in the source
# Procedure: as §2
# MDA-MB-453 [10] = test system: MDA-MB-453; remark: listed apart in the source
# Procedure: as §2
# CAL-148 [11] = test system: CAL-148; remark: listed apart in the source
# Procedure: as §2
# CAL-51 [12] = test system: CAL-51; remark: listed apart in the source
# Procedure: as §2
SMILES,normalised viability (CAL-85-1 [1]),normalised viability (DU-4475 [2]),normalised viability (HDQ-P1 [3]),normalised viability (MDA-MB-453 [4]),normalised viability (CAL-148 [5]),normalised viability (CAL-51 [6]),normalised viability (CAL-85-1 [7]),normalised viability (DU-4475 [8]),normalised viability (HDQ-P1 [9]),normalised viability (MDA-MB-453 [10]),normalised viability (CAL-148 [11]),normalised viability (CAL-51 [12])
Cc1cccc(-c2nn3c(c2-c2ccnc4ccc(C(N)=O)cc24)CCC3)n1 (30 nM),96.7%,95.8%,100%,93.3%,89.8%,103%,–,–,–,–,–,–
Cn1cc(CNCC2CCN(c3ncc(C(=O)NO)cn3)CC2)c2ccccc21 (30 nM),38.9%,29.3%,37.5%,4.37%,24.2%,70.1%,–,–,–,–,–,–
COc1ccc(-c2cc3c(C)nc(N)nc3n([C@H]3CC[C@H](OCCO)CC3)c2=O)cn1 (300 nM),49.9%,65.8%,18%,16.9%,42.2%,30.1%,–,–,–,–,–,–
Cc1cccc(-c2nn3c(c2-c2ccnc4ccc(C(N)=O)cc24)CCC3)n1 (300 nM),–,–,–,–,–,–,108%,102%,125%,115%,110%,103%
Cn1cc(CNCC2CCN(c3ncc(C(=O)NO)cn3)CC2)c2ccccc21 (300 nM),–,–,–,–,–,–,8.58%,2.97%,18.8%,2.81%,1.57%,7.57%
O=C(NC[C@H](O)CO)c1ccncc1Nc1ccc(I)cc1F (300 nM),77.3%,0.69%,57.6%,98%,82.7%,85.9%,–,–,–,–,–,–
COc1ccc(-c2cc3c(C)nc(N)nc3n([C@H]3CC[C@H](OCCO)CC3)c2=O)cn1 (3000 nM),–,–,–,–,–,–,10.4%,6.45%,10.7%,3.88%,6.69%,2.65%
O=C(NC[C@H](O)CO)c1ccncc1Nc1ccc(I)cc1F (3000 nM),–,–,–,–,–,–,48%,0.63%,57.4%,57.3%,66.8%,78.9%
Nc1nc(=O)c2c([nH]1)NCC(CNc1ccc(C(=O)N[C@@H](CCC(=O)O)C(=O)O)cc1)N2C=O (mixture of isomers) [Folinic acid] (29.7 nM),100%,115%,140%,99.8%,86.6%,97.8%,–,–,–,–,–,–
Nc1nc(=O)c2c([nH]1)NCC(CNc1ccc(C(=O)N[C@@H](CCC(=O)O)C(=O)O)cc1)N2C=O (mixture of isomers) [Folinic acid] (297 nM),–,–,–,–,–,–,100%,98.8%,122%,106%,95.2%,92.8%
O=C(Nc1c[nH]nc1-c1nc2ccc(CN3CCOCC3)cc2[nH]1)NC1CC1 [AT9283] (300 nM),87.7%,28.4%,61.1%,58.1%,61.9%,59.1%,–,–,–,–,–,–
O=C(Nc1c[nH]nc1-c1nc2ccc(CN3CCOCC3)cc2[nH]1)NC1CC1 [AT9283] (3000 nM),–,–,–,–,–,–,16.8%,0.96%,25.9%,26.9%,67.2%,25.5%
COc1cc(CCc2cc(NC(=O)c3ccc(N4CC(C)NC(C)C4)cc3)n[nH]2)cc(OC)c1 (stereo unspecified) [AZD4547] (30 nM),89.7%,92.7%,103%,109%,105%,107%,–,–,–,–,–,–
COc1cc(CCc2cc(NC(=O)c3ccc(N4CC(C)NC(C)C4)cc3)n[nH]2)cc(OC)c1 (stereo unspecified) [AZD4547] (300 nM),–,–,–,–,–,–,95.5%,97.8%,117%,56.1%,105%,96.4%
CCC/C=C/C=C/C(=O)O[C@H]1/C(=C/C(=O)OC)C[C@H]2C[C@H]([C@@H](C)O)OC(=O)C[C@H](O)C[C@@H]3C[C@H](OC(C)=O)C(C)(C)[C@](O)(C[C@@H]4C/C(=C/C(=O)OC)C[C@H](/C=C/C(C)(C)[C@]1(O)O2)O4)O3 [Bryostatin 1] (3 nM),110%,88.7%,78.6%,85.9%,85.5%,98.7%,–,–,–,–,–,–
CCC/C=C/C=C/C(=O)O[C@H]1/C(=C/C(=O)OC)C[C@H]2C[C@H]([C@@H](C)O)OC(=O)C[C@H](O)C[C@@H]3C[C@H](OC(C)=O)C(C)(C)[C@](O)(C[C@@H]4C/C(=C/C(=O)OC)C[C@H](/C=C/C(C)(C)[C@]1(O)O2)O4)O3 [Bryostatin 1] (30 nM),–,–,–,–,–,–,111%,65%,100%,96.6%,110%,95.3%
CO[C@@H](C(=O)N1Cc2[nH]nc(NC(=O)c3ccc(N4CCN(C)CC4)cc3)c2C1)c1ccccc1 [Danusertib] (300 nM),61.9%,57%,50.8%,60.2%,54.6%,60.3%,–,–,–,–,–,–
CO[C@@H](C(=O)N1Cc2[nH]nc(NC(=O)c3ccc(N4CCN(C)CC4)cc3)c2C1)c1ccccc1 [Danusertib] (3000 nM),–,–,–,–,–,–,40.5%,23.1%,27.8%,34.2%,53.5%,25.9%
Cc1nc(Nc2ncc(C(=O)Nc3c(C)cccc3Cl)s2)cc(N2CCN(CCO)CC2)n1 [Dasatinib] (30 nM),83.9% and 86%,105% and 87.6%,24.4% and 18.2%,102% and 101%,110% and 90.6%,59.8% and 68.3%,–,–,–,–,–,–
Cc1nc(Nc2ncc(C(=O)Nc3c(C)cccc3Cl)s2)cc(N2CCN(CCO)CC2)n1 [Dasatinib] (300 nM),–,–,–,–,–,–,51.2% and 43.6%,102% and 104%,9.87% and 10.7%,99.2% and 103%,90% and 89.1%,41.5% and 39.9%
O=S(=O)(c1cccc2cnccc12)N1CCCNCC1 [Fasudil] (300 nM),97.2%,117%,90.9%,106%,83.7%,107%,–,–,–,–,–,–
